Assay [1] addresses PBR (peripheral benzodiazepine binding sites, rat kidney mitochondrial membranes) (Rattus norvegicus, UniProt P16257). The assay can be described thus: [3H]-PK 11195 binding, peripheral benzodiazepine receptor. The settings on record: 10 and 100 μM.
The test system of assay [2] is CBR (central benzodiazepine binding sites, rat cerebral cortex membranes). The assay can be described thus: [3H] Ro 15-1788 binding, central benzodiazepine receptor. The settings on record: 10 and 100 μM.

PBR (peripheral benzodiazepine binding sites, rat kidney mitochondrial membranes), sequence (P16257 whole entry): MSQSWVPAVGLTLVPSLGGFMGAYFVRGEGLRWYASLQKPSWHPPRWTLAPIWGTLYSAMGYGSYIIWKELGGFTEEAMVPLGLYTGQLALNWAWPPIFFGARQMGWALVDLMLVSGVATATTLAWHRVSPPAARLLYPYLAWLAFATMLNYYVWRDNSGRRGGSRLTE

`CCC(C)N(C)C(=O)c1cc2ccccc2c(-c2ccccc2Cl)n1` (stereo not shown) [PK 11195, 1-(2-chlorophenyl)-N-methyl-N-(1-methylpropyl)-3-isoquinoline carboxamide]: the “affinity for PBR” value in assay [1] is “high affinity”.
`CCOC(=O)c1ncn2c1CN(C)C(=O)c1cc(F)ccc1-2` [Ro 15–1788]: the “affinity for CBR” value in assay [2] is “high affinity”.
For `CN1C(=O)CN=C(c2ccccc2)c2cc(Cl)ccc21` [diazepam], in assay [2], the “affinity for CBR” value is “high affinity”. In assay [1], the “affinity for PBR” value is on record as “high affinity”.

These data come from paper PMC3822689 (Journal of Cellular and Molecular Medicine, 2012).
